US6737383B1, “Herbicidal oxadiazolidines” (priority 1999, dated 2004)

Tests used:
blackgrass = assay: Test B pre/postemergence blackgrass; type: in vivo, Alopecurus myosuroides
Outline: (§1)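 Response is a visual 0-to-10 score relative to untreated plants, where 0 means no effect and 10 means complete control, taken twelve to sixteen days after application. Treatments went onto soil at planting and onto foliage of 1- to 4-leaf plants, using a surfactant-containing non-phytotoxic solvent.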

surinam grass = assay: Test B pre/postemergence surinam grass; type: in vivo, Brachiaria decumbens
Outline: as §1

cocklebur = assay: Test B pre/postemergence cocklebur; type: in vivo, Xanthium strumarium
Outline: as §1

corn = assay: Test B pre/postemergence corn; type: in vivo, Zea mays
Outline: as §1

crabgrass = assay: Test B pre/postemergence crabgrass; type: in vivo, Digitaria sanguinalis
Outline: as §1

giant foxtail = assay: Test B pre/postemergence giant foxtail; type: in vivo, Setaria faberii
Outline: as §1

morningglory = assay: Test B pre/postemergence morningglory; type: in vivo, Ipomoea hederacea
Outline: as §1

pigweed = assay: Test B pre/postemergence pigweed; type: in vivo, Amaranthus retroflexus
Outline: as §1

rape = assay: Test B pre/postemergence rape; type: in vivo, Brassica napus
Outline: as §1

sugar beet = assay: Test B pre/postemergence sugar beet; type: in vivo, Beta vulgaris
Outline: as §1

wheat = assay: Test B pre/postemergence wheat; type: in vivo, Triticum aestivum
Outline: as §1

wild oat = assay: Test B pre/postemergence wild oat; type: in vivo, Avena fatua
Outline: as §1

purple nutsedge = assay: Test B pre/postemergence purple nutsedge; type: in vivo, Cyperus rotundus
Outline: as §1

rice = assay: Test B flood test rice; type: in vivo, Oryza sativa
Outline: (§2)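 Read-out is a visual response score from 0 (no effect) to 10 (complete control), assigned by comparison with untreated controls. Treatment was applied at the 2-leaf stage, and plants stayed in the greenhouse for twelve to sixteen days before scoring.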

bamyardgrass = assay: Test B flood test barnyardgrass; type: in vivo, Echinochloa crus-galli
Outline: as §2

[1] = Postemergence, Rate 250 g/ha, scale 0 to 10
[2] = Postemergence, Rate 500 g/ha, scale of 0 to 10 where 0 is no effect and 10 is complete control
[3] = Preemergence, Rate 62 g/ha, scale 0 to 10 (0 no effect, 10 complete control)
[4] = Preemergence, Rate 125 g/ha, scale of 0 to 10 where 0 is no effect and 10 is complete control
[5] = Preemergence, Rate 250 g/ha, scale of 0 to 10 where 0 is no effect and 10 is complete control
[6] = Preemergence, Rate 500 g/ha, scale 0 to 10, 0 is no effect, 10 is complete control
[7] = Rate 62 g/ha, Postemergence, scale of 0 to 10 where 0 is no effect and 10 is complete control
[8] = Rate 125 g/ha, Postemergence, scale 0 to 10, 0 is no effect, 10 is complete control
[9] = Preemergence, Rate 250 g/ha, scale 0 to 10, 0 is no effect, 10 is complete control
[10] = Postemergence block (flood test species), Rate 250 g/ha, scale 0 to 10
[11] = Postemergence section (flood test species), Rate 500 g/ha, scale of 0 to 10 where 0 is no effect and 10 is complete control
[12] = Rate 125 g/ha, Postemergence section (flood test species), scale 0 to 10, 0 is no effect, 10 is complete control

C=C[Si](C)(C)Cn1c(=O)on(C(=O)N(c2ccc(Cl)cc2)C(C)C)c1=O [Compound 425]
Blackgrass plant response rating (blackgrass; [1]): 8 | Blackgrass plant response rating (blackgrass; [2]): 9 | Plant response rating, Blackgrass (blackgrass; [3]): 7 | Plant response rating, Blackgrass (blackgrass; [4]): 9 | Blackgrass plant response rating (blackgrass; [5]): 9 | Blackgrass plant response rating (blackgrass; [6]): 10 | Blackgrass plant response rating (blackgrass; [7]): 2 | Blackgrass plant response rating (blackgrass; [8]): 3 | B. signalgrass plant response rating (surinam grass; Postemergence, Rate 250 g/ha, scale 0 to 10, 0 no effect, 10 complete control): 7 | B. signalgrass plant response rating (surinam grass; [2]): 8 | Plant response rating, B. signalgrass (surinam grass; [3]): 3 | Plant response rating, B. signalgrass (surinam grass; [4]): 8 | B. signalgrass plant response rating (surinam grass; [5]): 8 | B. signalgrass plant response rating (surinam grass; Preemergence, Rate 500 g/ha, scale of 0 to 10 where 0 is no effect and 10 is complete control): 9 | B. signalgrass plant response rating (surinam grass; [7]): 0 | B. signalgrass plant response rating (surinam grass; [8]): 2 | Cocklebur plant response rating (cocklebur; [1]): 0 | Cocklebur plant response rating (cocklebur; [2]): 0 | Plant response rating, Cocklebur (cocklebur; [3]): 0 | Plant response rating, Cocklebur (cocklebur; [4]): 0 | Cocklebur plant response rating (cocklebur; [9]): 0 | Cocklebur plant response rating (cocklebur; [6]): 2 | Cocklebur plant response rating (cocklebur; [7]): 0 | Cocklebur plant response rating (cocklebur; [8]): 0 | Corn plant response rating (corn; [1]): 0 | Corn plant response rating (corn; [2]): 2 | Plant response rating, Corn (corn; [3]): 0 | Plant response rating, Corn (corn; [4]): 0 | Corn plant response rating (corn; [9]): 0 | Corn plant response rating (corn; [6]): 9 | Corn plant response rating (corn; [7]): 0 | Corn plant response rating (corn; [8]): 0 | Crabgrass plant response rating (crabgrass; [1]): 8 | Crabgrass plant response rating (crabgrass; [2]): 9 | Plant response rating, Crabgrass (crabgrass; [3]): 9 | Plant response rating, Crabgrass (crabgrass; [4]): 10 | Crabgrass plant response rating (crabgrass; [9]): 10 | Crabgrass plant response rating (crabgrass; [6]): 10 | Crabgrass plant response rating (crabgrass; [7]): 4 | Crabgrass plant response rating (crabgrass; [8]): 7 | Giant foxtail plant response rating (giant foxtail; [1]): 8 | Giant foxtail plant response rating (giant foxtail; [2]): 9 | Plant response rating, Giant foxtail (giant foxtail; [3]): 10 | Plant response rating, Giant foxtail (giant foxtail; [4]): 10 | Giant foxtail plant response rating (giant foxtail; [9]): 10 | Giant foxtail plant response rating (giant foxtail; [6]): 10 | Giant foxtail plant response rating (giant foxtail; [7]): 6 | Giant foxtail plant response rating (giant foxtail; [8]): 7 | Morningglory plant response rating (morningglory; [1]): 6 | Morningglory plant response rating (morningglory; [2]): 10 | Plant response rating, Morningglory (morningglory; [3]): 0 | Plant response rating, Morningglory (morningglory; [4]): 0 | Morningglory plant response rating (morningglory; [9]): 2 | Morningglory plant response rating (morningglory; [6]): 4 | Morningglory plant response rating (morningglory; [8]): 5 | Redroot pigweed plant response rating (pigweed; [1]): 2 | Redroot pigweed plant response rating (pigweed; [2]): 2 | Plant response rating, Redroot pigweed (pigweed; [3]): 0 | Plant response rating, Redroot pigweed (pigweed; [4]): 0 | Redroot pigweed plant response rating (pigweed; [9]): 3 | Redroot pigweed plant response rating (pigweed; [6]): 3 | Redroot pigweed plant response rating (pigweed; [8]): 0 | Rape plant response rating (rape; [1]): 2 | Rape plant response rating (rape; [2]): 3 | Plant response rating, Rape (rape; [3]): 0 | Plant response rating, Rape (rape; [4]): 2 | Rape plant response rating (rape; [9]): 2 | Rape plant response rating (rape; [6]): 10 | Rape plant response rating (rape; [8]): 0 | Sugarbeets plant response rating (sugar beet; [1]): 3 | Sugarbeets plant response rating (sugar beet; [2]): 4 | Plant response rating, Sugarbeets (sugar beet; [3]): 0 | Plant response rating, Sugarbeets (sugar beet; [4]): 0 | Sugarbeets plant response rating (sugar beet; [9]): 2 | Sugarbeets plant response rating (sugar beet; [6]): 2 | Sugarbeets plant response rating (sugar beet; [8]): 2 | Wheat plant response rating (wheat; [1]): 3 | Wheat plant response rating (wheat; [2]): 6 | Plant response rating, Wheat (wheat; [3]): 2 | Plant response rating, Wheat (wheat; [4]): 2 | Wheat plant response rating (wheat; [9]): 3 | Wheat plant response rating (wheat; [6]): 4 | Wheat plant response rating (wheat; [8]): 0 | Wild oats plant response rating (wild oat; [1]): 2 | Wild oats plant response rating (wild oat; [2]): 3 | Plant response rating, Wild oats (wild oat; [3]): 2 | Plant response rating, Wild oats (wild oat; [4]): 4 | Wild oats plant response rating (wild oat; [9]): 4 | Wild oats plant response rating (wild oat; [6]): 10 | Wild oats plant response rating (wild oat; [8]): 0 | Nutsedge plant response rating (purple nutsedge; [1]): 0 | Nutsedge plant response rating (purple nutsedge; [2]): 0 | Plant response rating, Nutsedge (purple nutsedge; [3]): 0 | Plant response rating, Nutsedge (purple nutsedge; [4]): 0 | Nutsedge plant response rating (purple nutsedge; [9]): 3 | Nutsedge plant response rating (purple nutsedge; [6]): 5 | Nutsedge plant response rating (purple nutsedge; [8]): 0 | Rice plant response rating (rice; [10]): 0 | Rice plant response rating (rice; [11]): 0 | Rice plant response rating (rice; [12]): 0 | Barnyardgrass plant response rating (bamyardgrass; [10]): 1 | Barnyardgrass plant response rating (bamyardgrass; [11]): 7 | Barnyardgrass plant response rating (bamyardgrass; Rate 62 g/ha, Postemergence (flood test species), scale of 0 to 10 where 0 is no effect and 10 is complete control): 0 | Barnyardgrass plant response rating (bamyardgrass; [12]): 0
